Article PMC4869175, “Evidence that phytochrome functions as a protein kinase in plant light signalling” (Nature Communications, 2016)

Target: T1, FL-AsphyA (Avena sativa, UniProt P06593)
T1 construct: Full-length phytochrome genes of AsPHYA; made in house; host or cells: Pichia pastoris GS115
T1 sequence (P06593 1-1129): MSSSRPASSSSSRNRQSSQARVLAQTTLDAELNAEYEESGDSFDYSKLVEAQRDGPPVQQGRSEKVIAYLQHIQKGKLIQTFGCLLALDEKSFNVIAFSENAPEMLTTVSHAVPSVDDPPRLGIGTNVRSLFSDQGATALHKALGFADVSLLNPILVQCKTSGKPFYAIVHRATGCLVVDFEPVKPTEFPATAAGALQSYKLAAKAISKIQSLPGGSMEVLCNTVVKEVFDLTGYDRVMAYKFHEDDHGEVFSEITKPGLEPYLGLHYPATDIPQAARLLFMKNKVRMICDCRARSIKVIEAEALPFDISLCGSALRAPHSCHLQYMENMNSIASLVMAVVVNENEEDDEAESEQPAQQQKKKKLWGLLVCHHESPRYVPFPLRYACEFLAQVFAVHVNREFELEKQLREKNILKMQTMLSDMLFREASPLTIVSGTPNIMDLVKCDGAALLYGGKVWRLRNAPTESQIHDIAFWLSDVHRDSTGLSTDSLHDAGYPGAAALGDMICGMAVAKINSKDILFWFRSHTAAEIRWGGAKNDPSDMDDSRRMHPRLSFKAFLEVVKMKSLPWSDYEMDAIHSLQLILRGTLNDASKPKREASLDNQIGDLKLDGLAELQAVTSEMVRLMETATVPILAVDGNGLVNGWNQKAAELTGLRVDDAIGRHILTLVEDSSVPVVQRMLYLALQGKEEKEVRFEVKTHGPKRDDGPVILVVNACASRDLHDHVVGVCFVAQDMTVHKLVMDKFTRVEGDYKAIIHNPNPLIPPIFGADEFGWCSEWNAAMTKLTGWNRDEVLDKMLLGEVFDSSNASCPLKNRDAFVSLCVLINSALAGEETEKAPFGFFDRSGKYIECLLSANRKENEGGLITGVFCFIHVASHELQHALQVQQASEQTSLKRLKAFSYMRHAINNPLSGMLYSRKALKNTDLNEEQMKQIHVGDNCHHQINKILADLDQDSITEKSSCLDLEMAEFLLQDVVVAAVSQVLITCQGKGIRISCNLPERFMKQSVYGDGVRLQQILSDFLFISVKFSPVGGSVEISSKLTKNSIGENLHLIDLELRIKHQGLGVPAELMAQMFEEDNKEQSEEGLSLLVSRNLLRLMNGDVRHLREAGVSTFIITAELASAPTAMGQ
Experiment: Autophosphorylation and kinase activity assays of 8-azido-ATP-labelled AsphyA
Assay type: biochemical
Settings: Pfr form of FL-AsphyA, 8-azido-ATP labeling buffer
Experimental: For autophosphorylation assays, reaction mixtures (20 μl) contained kinase buffer (25 mM Tris-HCl, pH 7.8, 0.2 mM EDTA, 4 mM DTT and 5 mM MgCl2) and purified recombinant phytochromes (0.5–1.0 μg) in either Pr or Pfr forms. Phytochrome samples were irradiated with red or far-red light for 15 min before the start of the reaction. Because histone H1 is known to stimulate phytochrome autophosphorylation activity, the same amount of histone H1 (0.5–1.0 μg) was added to the phytochrome samples in the indicated experiments. The conditions for kinase assays were similar to those of phytochrome autophosphorylation experiments, except for addition of a substrate (0.5–1.0 μg). Reactions were started by adding 150 μM ATP containing 10 μCi of (γ-^32P) ATP and incubated at 30 °C for 1 h. […] To verify the proteins loaded, Coomassie blue protein staining and zinc-fluorescence assay were performed before drying. For quantification of the phosphorylation, dried gels were exposed to Fuji imaging plates, and the relative signals of phyA autophosphorylation and PIF3 phosphorylation by phyA were quantitated with a Typhoon FLA 7000 phosphor-imager (GE Healthcare).
Supplementary Figure 11. […] 8-azido-ATP labeled proteins were then detected using avidin-HRP. […] The band intensities were quantified using ImageJ software, and the percentages of 8-azido-ATP labeling were normalized to the 66-610 protein signals. […]

8-N3-ATP-biotin-long chain-hydrazone [8-azido-ATP]
autophosphorylation of 8-azido-ATP-labelled AsphyA: little autophosphorylation
kinase activity (PIF3) of 8-azido-ATP-labelled AsphyA: significantly reduced kinase activity
